# From patent publication US10206394B2, “Herbicidal compounds” (Syngenta Participations AG, priority 2014, dated 2019)
# Like-named read-outs stand apart in the source and are kept apart here.
# Legend:
# Assay in all cases: Glasshouse assay for herbicidal activity (pre- and post-emergence), percentage phytotoxicity
# Type in all cases: in vivo
# [1] = test system: Avena fatua (AVEFA); conditions: Avena fatua, 250 g/ha
# Protocol: (§1) Test—Glasshouse Assay for Herbicidal Activity
# (§2) Seeds of a variety of monocotyledonous and dicotyledonous test plants are sown in standard soil in pots. The plants are cultivated for one day (for pre-emergence (PRE)) or for about 12 days (for post-emergence (POST)) under controlled conditions in a glasshouse (warm climate species at 24/18° C., cool climate species at 20/16° C., both at day/night; 16 hours light; 65% humidity).
# (§3) The test plants are then grown on, in a glasshouse (greenhouse) under controlled conditions (warm climate species at 24/18° C., cool climate species at 20/16° C., both at day/night; 16 hours light; 65% humidity) and are watered twice daily. 15 days after application of the test herbicide (15 DAA) (for post-emergence), and 20 days after application of the test herbicide (20 DAA) (for pre-emergence), the test plants are evaluated visually, and an assessed percentage phytotoxicity score is given for each herbicidal application on each plant species (with 100%=total damage to plant; 0%=no damage to plant).
# (§4) The plant species tested are as follows: Alopecurus myosuroides (ALOMY), Avena fatua (AVEFA), Lolium perenne (LOLPE), Echinochloa crus-galli (ECHCG).
# [2] = test system: Echinochloa crus-galli (ECHCG); conditions: Echinochloa crus-galli, 250 g/ha
# Protocol: as §1, §2, §3, §4
# [3] = test system: Alopecurus myosuroides (ALOMY); conditions: Alopecurus myosuroides, 250 g/ha
# Protocol: as §1, §2, §3, §4
# [4] = test system: Lolium perenne (LOLPE); conditions: Lolium perenne, 250 g/ha
# Protocol: as §1, §2, §3, §4
# [5] = post-emergence, 360 h, post-emergence, 15 DAA, visual score (100%=total damage; 0%=no damage), read-out: AVEFA POST herbicidal activity (percentage phytotoxicity)
# [6] = pre-emergence, 480 h, pre-emergence, 20 DAA, visual score (100%=total damage; 0%=no damage), read-out: AVEFA PRE herbicidal activity (percentage phytotoxicity)
# [7] = post-emergence, 360 h, post-emergence, 15 DAA, visual score (100%=total damage; 0%=no damage), read-out: ECHCG POST herbicidal activity (percentage phytotoxicity)
# [8] = pre-emergence, 480 h, pre-emergence, 20 DAA, visual score (100%=total damage; 0%=no damage), read-out: ECHCG PRE herbicidal activity (percentage phytotoxicity)
# [9] = post-emergence, 360 h, post-emergence, 15 DAA, visual score (100%=total damage; 0%=no damage), read-out: ALOMY POST herbicidal activity (percentage phytotoxicity)
# [10] = pre-emergence, 480 h, pre-emergence, 20 DAA, visual score (100%=total damage; 0%=no damage), read-out: ALOMY PRE herbicidal activity (percentage phytotoxicity)
# [11] = post-emergence, 360 h, post-emergence, 15 DAA, visual score (100%=total damage; 0%=no damage), read-out: LOLPE POST herbicidal activity (percentage phytotoxicity)
# [12] = pre-emergence, 480 h, pre-emergence, 20 DAA, visual score (100%=total damage; 0%=no damage), read-out: LOLPE PRE herbicidal activity (percentage phytotoxicity)
# [13] = post-emergence, 360 h, post-emergence, 15 DAA, visual assessment (100%=total damage, 0%=no damage), read-out: Post-emergence herbicidal activity (percentage phytotoxicity) AVEFA POST
# [14] = pre-emergence, 480 h, pre-emergence, 20 DAA, visual assessment (100%=total damage, 0%=no damage), read-out: Pre-emergence herbicidal activity (percentage phytotoxicity) AVEFA PRE
# [15] = post-emergence, 360 h, post-emergence, 15 DAA, visual assessment (100%=total damage, 0%=no damage), read-out: Post-emergence herbicidal activity (percentage phytotoxicity) ECHCG POST
# [16] = pre-emergence, 480 h, pre-emergence, 20 DAA, visual assessment (100%=total damage, 0%=no damage), read-out: Pre-emergence herbicidal activity (percentage phytotoxicity) ECHCG PRE
# [17] = post-emergence, 360 h, post-emergence, 15 DAA, visual assessment (100%=total damage, 0%=no damage), read-out: Post-emergence herbicidal activity (percentage phytotoxicity) ALOMY POST
# [18] = pre-emergence, 480 h, pre-emergence, 20 DAA, visual assessment (100%=total damage, 0%=no damage), read-out: Pre-emergence herbicidal activity (percentage phytotoxicity) ALOMY PRE
# [19] = post-emergence, 360 h, post-emergence, 15 DAA, visual assessment (100%=total damage, 0%=no damage), read-out: Post-emergence herbicidal activity (percentage phytotoxicity) LOLPE POST
# [20] = pre-emergence, 480 h, pre-emergence, 20 DAA, visual assessment (100%=total damage, 0%=no damage), read-out: Pre-emergence herbicidal activity (percentage phytotoxicity) LOLPE PRE
Structure (SMILES),"pest or weed control at 250 g/ha [1, 5] [%]","pest or weed control at 250 g/ha [1, 6] [%]","pest or weed control at 250 g/ha [2, 7] [%]","pest or weed control at 250 g/ha [2, 8] [%]","pest or weed control at 250 g/ha [3, 9] [%]","pest or weed control at 250 g/ha [3, 10] [%]","pest or weed control at 250 g/ha [4, 11] [%]","pest or weed control at 250 g/ha [4, 12] [%]","pest or weed control at 250 g/ha [1, 13] [%]","pest or weed control at 250 g/ha [1, 14] [%]","pest or weed control at 250 g/ha [2, 15] [%]","pest or weed control at 250 g/ha [2, 16] [%]","pest or weed control at 250 g/ha [3, 17] [%]","pest or weed control at 250 g/ha [3, 18] [%]","pest or weed control at 250 g/ha [4, 19] [%]","pest or weed control at 250 g/ha [4, 20] [%]"
CCCCCCCNC(=O)CC1CC(=O)C(c2c(C)cc(C)cc2C)C1=O (stereo not drawn) [Compound A178],70,0,40,80,70,20,70,80,,,,,,,,
COCCOCCCNC(=O)CC1CC(=O)C(c2c(C)cc(C)cc2C)C1=O (stereo not drawn) [Compound A179],100,90,100,80,100,100,80,90,,,,,,,,
Cc1cc(C)c(C2C(=O)CC(CC(=O)NCC3(F)COC3)C2=O)c(C)c1 (stereo not drawn) [Compound A180],70,0,70,20,70,40,30,0,,,,,,,,
Cc1cc(C)c(C2C(=O)CC(CC(=O)NC3CC(F)C3)C2=O)c(C)c1 (stereo not drawn) [Compound A181],90,90,80,90,90,90,100,100,,,,,,,,
Cc1cc(C)c(C2C(=O)CC(CC(=O)NC3COC3)C2=O)c(C)c1 (stereo not drawn) [Compound A182],70,20,80,0,70,70,40,70,,,,,,,,
Cc1cc(C)c(C2C(=O)CC(CC(=O)NCC3CCC3)C2=O)c(C)c1 (stereo not drawn) [Compound A184],70,0,90,90,90,90,80,90,,,,,,,,
Cc1cc(C)c(C2C(=O)CC(CC(=O)NC3CC(F)(F)C3)C2=O)c(C)c1 (stereo not drawn) [Compound A185],80,60,70,70,80,80,70,70,,,,,,,,
Cc1cc(-c2nccs2)cc(C)c1C1C(=O)CC(CC(=O)NC(C)(C)C)C1=O (stereo not drawn) [Compound A186],30,0,80,70,40,40,60,60,,,,,,,,
Cc1cc(C)c(C2C(=O)CC(CC(N)=O)C2=O)c(C)c1 (stereo not drawn) [Compound A187],100,90,100,90,80,80,90,100,,,,,,,,
Cc1cc(C)c(C2C(=O)CC(CC(=O)Nc3ccc(C#N)cc3)C2=O)c(C)c1 (stereo not drawn) [Compound B1],,,,,,,,,0,0,60,70,0,20,20,20
COc1ccc(NC(=O)CC2CC(=O)C(c3c(C)cc(C)cc3C)C2=O)cc1OC (stereo not drawn) [Compound B2],,,,,,,,,30,60,10,80,40,40,30,80
Cc1cc(C)c(C2C(=O)CC(CC(=O)Nc3ccc(F)cc3F)C2=O)c(C)c1 (stereo not drawn) [Compound B3],,,,,,,,,10,50,70,90,0,60,80,90
Cc1cc(-c2ncc(F)cn2)cc(C)c1C1C(=O)CC(CC(=O)NC(C)(C)C)C1=O (stereo not drawn) [Compound B5],,,,,,,,,100,90,100,100,100,100,90,100
COCCOCCCNC(=O)CC1CC(=O)C(c2c(C)cc(C)cc2C)C1=O (stereo not drawn) [Compound B7],,,,,,,,,100,90,100,80,100,100,80,90
Cc1cc(C)c(C2C(=O)CC(CC(N)=O)C2=O)c(C)c1 (stereo not drawn) [Compound B8],,,,,,,,,100,90,100,90,80,80,90,100
Cc1cc(C)c(C2C(=O)CC(CC(=O)NCc3cccc(C#N)c3)C2=O)c(C)c1 (stereo not drawn) [Compound B9],,,,,,,,,70,70,70,100,70,70,70,90
COC(=O)c1cccc(CNC(=O)CC2CC(=O)C(c3c(C)cc(C)cc3C)C2=O)c1 (stereo not drawn) [Compound B10],,,,,,,,,70,0,70,0,30,0,30,0
COc1cccc(CNC(=O)CC2CC(=O)C(c3c(C)cc(C)cc3C)C2=O)c1 (stereo not drawn) [Compound B11],,,,,,,,,70,70,70,90,70,70,80,90
